Experimental findings from patent US20110117081A1, “FUNCTIONALIZED PYRROLIDINES AND USE THEREOF AS IAP INHIBITORS” (priority 2008, published 2011) are described below.

In assay [1] the test system is Colorectal carcinoma HCT116 cells. In words: HCT116 + ETR1 cell viability assay (MTT). To be noted: with ETR1 (40 ng/ml), 72 hrs. The class given is cell-based. As for the experimental part:
Colorectal carcinoma HCT116 cells (ATCC# CCL-247) were cultured as monolayers in 96 well plates at a density of 2000 cells per well in 100 ul of McCoy's 5a medium (HyClone) supplemented with 2.2 g/L sodium bicarbonate (Gibco), 10% FBS (HyClone) and 1% penecillin/streptomycin (HyClone) for 24 hours. Triplicate wells of cells were treated for 72 hrs at 37° C. (5% CO2) with 50 ul of HGS agonistic Trail receptor antibody, ETR1 (40 ng/ml) in combination with 50 ul of diluted compound (0.01 to 10000 nM). Metabolic viability of remaining cells was assessed by MTT assay.
(§1) The percentage viability of compound-treated cells was expressed as a fraction of the absorbance/luminescence signal obtained from non-treated cells. EC50 values (corresponding to 50% cell survival in the presence of compound as compared to untreated controls) were calculated from MTT survival curves (HCT116 and SKOV3) using BioAssay software (CambridgeSoft) and from Cell Titer-Glo survival curves (synovioycte and Jurkat cells) using GraphPad Prism (Graph Pad Software Inc.). In the below chart, EC50 values are summarized as follows: a=EC50 of less than 10 nM; b=EC50 of 10-100 nM; and c=EC50 of greater than 100 nM.

Assay [2] concerns Ovarian adenocarcinoma SKOV3 cells. In words: SKOV3 cell viability assay (MTT). The class given is cell-based. Particulars: Homo sapiens, SK-OV-3, 72 hours. The method, then: Ovarian adenocarcinoma SKOV3 cells (ATCC# HTB-77) were cultured as monolayers in McCoy's 5a medium (HyClone) supplemented with 2.2 g/L sodium bicarbonate (Gibco), 10% FBS (HyClone) and 1% penicillin/streptomycin (HyClone). Cells were seeded in tissue culture-treated 96 well plates at 5000 cells/well in 150 ul of media. After 24 hours, triplicate wells of cells were treated with various concentrations of compound (0.01 to 10000 nM) diluted in 50 ul of culture media. Cells were incubated at 37° C. (5% CO2) in the presence of compound for 72 hours. Metabolic viability of remaining cells was assessed by MTT (thiazolyl blue tetrazolium bromide, Sigma) assay. 20 ul of MTT reagent (10 mg/ml) was added per well and plates were incubated for 4 hours at 37° C. (5% CO2). The supernatant was then removed from the plate. The converted MTT product was solubilized with 100 uL of isopropanol and the absorbance was read at 570 nm using a Tecan spectrophotometer.
as §1

For orientation: EC50 means the concentration that produces a half-maximal response.

Consider `CN[C@@H](C)C(=O)N[C@H](C(=O)N1C[C@@H](NC(=O)C2CCC(C(=O)N[C@H]3C[C@@H](C(=O)N[C@@H]4CCCc5ccccc54)N(C(=O)[C@@H](NC(=O)[C@H](C)NC)C4CCCCC4)C3)CC2)C[C@H]1C(=O)N[C@@H]1CCCc2ccccc21)C1CCCCC1` (some centres unmarked) [Compound 4], for which the concentration for a half-maximal effect (EC50) in assay [1] and in assay [2] was below 10 nM in each case.

As to `CN[C@@H](C)C(=O)N[C@H](C(=O)N1C[C@@H](NC(=O)c2ccc(C(=O)N[C@H]3C[C@@H](C(=O)NC(c4ccccc4)c4ccccc4)N(C(=O)[C@@H](NC(=O)[C@H](C)NC)C4CCCCC4)C3)cc2)C[C@H]1C(=O)NC(c1ccccc1)c1ccccc1)C1CCCCC1` [Compound 5], the EC50 in assay [1] and in assay [2] was below 10 nM in each case.

Take `CN[C@@H](C)C(=O)N[C@H](C(=O)N1C[C@@H](NC(=O)c2ccc(C(=O)N[C@H]3C[C@@H](C(=O)N[C@@H]4CCc5ccccc54)N(C(=O)[C@@H](NC(=O)[C@H](C)NC)C4CCCCC4)C3)cc2)C[C@H]1C(=O)N[C@@H]1CCc2ccccc21)C1CCCCC1` [Compound 6]: the EC50 in assay [1] and in assay [2] was below 10 nM throughout.

Turning to `CN[C@@H](C)C(=O)N[C@H](C(=O)N1C[C@@H](NC(=O)c2ccc(C(=O)N[C@H]3C[C@@H](C(=O)N[C@H](CCCc4ccccc4)c4ccccc4)N(C(=O)[C@@H](NC(=O)[C@H](C)NC)C4CCCCC4)C3)cc2)C[C@H]1C(=O)N[C@H](CCCc1ccccc1)c1ccccc1)C1CCCCC1` [Compound 8], the EC50 in assay [1] is 10 to 100 nM; in assay [2], above 100 nM.

Take `CN[C@@H](C)C(=O)N[C@H](C(=O)N1C[C@@H](NC(=O)c2ccc(-c3ccc(C(=O)N[C@H]4C[C@@H](C(=O)N[C@@H]5CCCc6ccccc65)N(C(=O)[C@@H](NC(=O)[C@H](C)NC)C5CCCCC5)C4)cc3)cc2)C[C@H]1C(=O)N[C@@H]1CCCc2ccccc21)C1CCCCC1` [Compound 9]: the EC50 in assay [1] and in assay [2] was below 10 nM in each case.

`CN[C@@H](C)C(=O)N[C@H](C(=O)N1C[C@@H](NC(=O)c2ccc(-c3ccc(C(=O)N[C@H]4C[C@@H](C(=O)N[C@@H]5CCc6ccccc65)N(C(=O)[C@@H](NC(=O)[C@H](C)NC)C5CCCCC5)C4)cc3)cc2)C[C@H]1C(=O)N[C@@H]1CCc2ccccc21)C1CCCCC1` [Compound 10]: the EC50 in assay [1] and in assay [2] was below 10 nM throughout.

In the case of `CN[C@@H](C)C(=O)N[C@H](C(=O)N1C[C@@H](NC(=O)c2ccc(-c3ccc(C(=O)N[C@H]4C[C@@H](C(=O)NC(c5ccccc5)c5ccccc5)N(C(=O)[C@@H](NC(=O)[C@H](C)NC)C5CCCCC5)C4)cc3)cc2)C[C@H]1C(=O)NC(c1ccccc1)c1ccccc1)C1CCCCC1` [Compound 11], the results for the EC50 in assay [1] and in assay [2] were below 10 nM and 10 to 100 nM, respectively.

Regarding `CN[C@@H](C)C(=O)N[C@H](C(=O)N1C[C@@H](NC(=O)c2ccc(-c3ccc(C(=O)N[C@H]4C[C@@H](C(=O)NC5c6ccccc6-c6ccccc65)N(C(=O)[C@@H](NC(=O)[C@H](C)NC)C5CCCCC5)C4)cc3)cc2)C[C@H]1C(=O)NC1c2ccccc2-c2ccccc21)C1CCCCC1` [Compound 12], the EC50 in assay [1] is below 10 nM; in assay [2], 10 to 100 nM.

In the case of `CN[C@@H](C)C(=O)N[C@H](C(=O)N1C[C@@H](NC(=O)c2ccc(C(=O)N[C@H]3C[C@@H](C(=O)N[C@H](C)c4ccccc4)N(C(=O)[C@@H](NC(=O)[C@H](C)NC)C4CCCCC4)C3)cc2)C[C@H]1C(=O)N[C@H](C)c1ccccc1)C1CCCCC1` [Compound 13], the 50% effective concentration (EC50) in assay [1] and in assay [2] was below 10 nM throughout.

On to `CN[C@@H](C)C(=O)N[C@H](C(=O)N1C[C@@H](NC(=O)c2ccc(C(=O)N[C@H]3C[C@@H](C(=O)N[C@H](Cc4ccccc4)c4ccccc4)N(C(=O)[C@@H](NC(=O)[C@H](C)NC)C4CCCCC4)C3)cc2)C[C@H]1C(=O)N[C@H](Cc1ccccc1)c1ccccc1)C1CCCCC1` [Compound 14], for which the EC50 in assay [1] is below 10 nM; in assay [2], 10 to 100 nM.

For `CN[C@@H](C)C(=O)N[C@H](C(=O)N1C[C@@H](NC(=O)c2ccc(C(=O)N[C@H]3C[C@@H](C(=O)NC4c5ccccc5-c5ccccc54)N(C(=O)[C@@H](NC(=O)[C@H](C)NC)C4CCCCC4)C3)cc2)C[C@H]1C(=O)NC1c2ccccc2-c2ccccc21)C1CCCCC1` [Compound 15], the EC50 in assay [1] and in assay [2] was below 10 nM throughout.

Take `CN[C@@H](C)C(=O)N[C@H](C(=O)N1C[C@@H](NC(=O)c2ccc(C(=O)N[C@H]3C[C@@H](C(=O)N[C@H](CCc4ccccc4)c4ccccc4)N(C(=O)[C@@H](NC(=O)[C@H](C)NC)C4CCCCC4)C3)cc2)C[C@H]1C(=O)N[C@H](CCc1ccccc1)c1ccccc1)C1CCCCC1` [Compound 16]: the EC50 in assay [1] and in assay [2] was 10 to 100 nM in each case.

Take `CN[C@@H](C)C(=O)N[C@H](C(=O)N1C[C@@H](NC(=O)C2CCC(C(=O)N[C@H]3C[C@@H](C(=O)N[C@H](COCc4ccccc4)c4ccccc4)N(C(=O)[C@@H](NC(=O)[C@H](C)NC)C4CCCCC4)C3)CC2)C[C@H]1C(=O)N[C@H](COCc1ccccc1)c1ccccc1)C1CCCCC1` (some centres unmarked) [Compound 17]: the EC50 was below 10 nM in assay [1] and 10 to 100 nM in assay [2].

Take `CN[C@@H](C)C(=O)N[C@H](C(=O)N1C[C@@H](NC(=O)c2ccc(C(=O)N[C@H]3C[C@@H](C(=O)N[C@H](COCc4ccccc4)c4ccccc4)N(C(=O)[C@@H](NC(=O)[C@H](C)NC)C4CCCCC4)C3)cc2)C[C@H]1C(=O)N[C@H](COCc1ccccc1)c1ccccc1)C1CCCCC1` [Compound 18]: the EC50 in assay [1] is below 10 nM; in assay [2] it was 10 to 100 nM.

Consider `CN[C@@H](C)C(=O)N[C@H](C(=O)N1C[C@@H](NC(=O)c2ccc3cc(C(=O)N[C@H]4C[C@@H](C(=O)N[C@@H]5CCCc6ccccc65)N(C(=O)[C@@H](NC(=O)[C@H](C)NC)C5CCCCC5)C4)ccc3c2)C[C@H]1C(=O)N[C@@H]1CCCc2ccccc21)C1CCCCC1` [Compound 19], for which the concentration giving a half-maximal response (EC50) in assay [1] and in assay [2] was below 10 nM each time.

As for `CN[C@@H](C)C(=O)N[C@H](C(=O)N1C[C@@H](NC(=O)c2ccc3cc(C(=O)N[C@H]4C[C@@H](C(=O)NC5c6ccccc6-c6ccccc65)N(C(=O)[C@@H](NC(=O)[C@H](C)NC)C5CCCCC5)C4)ccc3c2)C[C@H]1C(=O)NC1c2ccccc2-c2ccccc21)C1CCCCC1` [Compound 20], the EC50 in assay [1] and in assay [2] was below 10 nM in each case.

With `CN[C@@H](C)C(=O)N[C@H](C(=O)N1C[C@@H](NC(=O)c2ccc3cc(C(=O)N[C@H]4C[C@@H](C(=O)N[C@H](COCc5ccccc5)c5ccccc5)N(C(=O)[C@@H](NC(=O)[C@H](C)NC)C5CCCCC5)C4)ccc3c2)C[C@H]1C(=O)N[C@H](COCc1ccccc1)c1ccccc1)C1CCCCC1` [Compound 21], the 50% effective concentration (EC50) is below 10 nM in assay [1] and 10 to 100 nM in assay [2].

Take `CN[C@@H](C)C(=O)N[C@H](C(=O)N1C[C@@H](NC(=O)c2ccc3cc(C(=O)N[C@H]4C[C@@H](C(=O)N[C@@H]5CCc6ccccc65)N(C(=O)[C@@H](NC(=O)[C@H](C)NC)C5CCCCC5)C4)ccc3c2)C[C@H]1C(=O)N[C@@H]1CCc2ccccc21)C1CCCCC1` [Compound 22]: the EC50 in assay [1] and in assay [2] was below 10 nM in each case.

On to `CN[C@@H](C)C(=O)N[C@H](C(=O)N1C[C@@H](NC(=O)c2ccc3cc(C(=O)N[C@H]4C[C@@H](C(=O)NC(c5ccccc5)c5ccccc5)N(C(=O)[C@@H](NC(=O)[C@H](C)NC)C5CCCCC5)C4)ccc3c2)C[C@H]1C(=O)NC(c1ccccc1)c1ccccc1)C1CCCCC1` [Compound 23], for which the EC50 in assay [1] and in assay [2] was below 10 nM in each case.

For the compound `CN[C@@H](C)C(=O)N[C@H](C(=O)N1C[C@@H](NC(=O)C2CCC(C(=O)N[C@H]3C[C@@H](C(=O)N[C@@H]4CCOc5ccc(F)cc54)N(C(=O)[C@@H](NC(=O)[C@H](C)NC)C4CCCCC4)C3)CC2)C[C@H]1C(=O)N[C@@H]1CCOc2ccc(F)cc21)C1CCCCC1` (some centres unmarked) [Compound 24], the EC50 is below 10 nM in assay [1] and 10 to 100 nM in assay [2].

For the compound `CN[C@@H](C)C(=O)N[C@H](C(=O)N1C[C@@H](NC(=O)c2ccc(C(=O)N[C@H]3C[C@@H](C(=O)N[C@@H]4CCOc5ccc(F)cc54)N(C(=O)[C@@H](NC(=O)[C@H](C)NC)C4CCCCC4)C3)cc2)CC1C(=O)N[C@@H]1CCOc2ccc(F)cc21)C1CCCCC1` (some centres unmarked) [Compound 25], the EC50 is below 10 nM in assay [1] and 10 to 100 nM in assay [2].

For `CN[C@@H](C)C(=O)N[C@H](C(=O)N1C[C@@H](NC(=O)c2ccc(C(=O)N[C@H]3C[C@@H](C(=O)N[C@H](C)c4ccc(F)cc4)N(C(=O)[C@@H](NC(=O)[C@H](C)NC)C4CCCCC4)C3)cc2)CC1C(=O)N[C@H](C)c1ccc(F)cc1)C1CCCCC1` (some centres unmarked) [Compound 26], the EC50 in assay [1] and in assay [2] was below 10 nM each time.
